Data from the NIST ThermoML archive (doi:10.1021/acs.jced.7b01006).
Numbers after ± are expanded uncertainties.

Assay: xn = mol fraction of the nth substance listed
Settings: 100 kPa, Liquid; for electrical conductivity: Alternating current cell with electrodes; for viscosity: Falling or rolling sphere viscometry; for mass density: Vibrating tube method

CCC[n+]1ccn(C)c1C.N#C[S-] [1,2-dimethyl-3-propylimidazolium thiocyanate] + CC#N
Settings	electrical conductivity [S/m]	mass density [kg/m3]	viscosity [mPa·s]
288.15 K, x1 = 0.1002	5.17 ± 0.52	884.48 ± 2	7.694 ± 0.11
288.15 K, x1 = 0.2002	4.31 ± 0.43	948.75 ± 2	16.21 ± 0.23
288.15 K, x1 = 0.2998	3.45 ± 0.35	996.05 ± 2.1	29.71 ± 0.44
288.15 K, x1 = 0.4001	2.35 ± 0.24	1028.84 ± 2.1	51.08 ± 0.69
288.15 K, x1 = 0.4997	1.21 ± 0.12	1052.44 ± 2.2	81.84 ± 1.7
288.15 K, x1 = 0.5998	0.95 ± 0.1	1067.26 ± 2.3	120.8 ± 3.8
288.15 K, x1 = 0.7002	0.685 ± 0.069	1077.84 ± 2.4	166.5 ± 7
288.15 K, x1 = 0.7999	0.496 ± 0.05	1085.72 ± 2.5	215 ± 11
288.15 K, x1 = 0.8999	0.378 ± 0.038	1093.78 ± 2.7	264.8 ± 15
288.15 K, x1 = 1	0.255 ± 0.026	1099.81 ± 2.9	316.5 ± 20
293.15 K, x1 = 0.1002	5.5 ± 0.55	880.24 ± 2	5.454 ± 0.076
293.15 K, x1 = 0.2002	4.67 ± 0.47	945.16 ± 2	11.9 ± 0.2
293.15 K, x1 = 0.2998	3.84 ± 0.38	992.52 ± 2.1	22.12 ± 0.33
293.15 K, x1 = 0.4001	2.64 ± 0.26	1025.75 ± 2.1	37.64 ± 0.58
293.15 K, x1 = 0.4997	1.46 ± 0.15	1049.28 ± 2.2	58.62 ± 0.88
293.15 K, x1 = 0.5998	1.16 ± 0.12	1064.44 ± 2.3	85.72 ± 1.9
293.15 K, x1 = 0.7002	0.883 ± 0.088	1075.11 ± 2.4	117.1 ± 3.6
293.15 K, x1 = 0.7999	0.639 ± 0.064	1083.11 ± 2.5	150.3 ± 5.9
293.15 K, x1 = 0.8999	0.478 ± 0.048	1090.97 ± 2.7	183.5 ± 8.4
293.15 K, x1 = 1	0.361 ± 0.036	1096.75 ± 2.9	215.8 ± 11
298.15 K, x1 = 0.1002	5.83 ± 0.58	876.09 ± 2	3.864 ± 0.054
298.15 K, x1 = 0.2002	5.05 ± 0.51	941.45 ± 2	8.717 ± 0.12
298.15 K, x1 = 0.2998	4.27 ± 0.43	988.89 ± 2.1	16.33 ± 0.24
298.15 K, x1 = 0.4001	2.98 ± 0.3	1022.71 ± 2.1	27.66 ± 0.42
298.15 K, x1 = 0.4997	1.72 ± 0.17	1046.39 ± 2.2	42.09 ± 0.67
298.15 K, x1 = 0.5998	1.4 ± 0.14	1061.68 ± 2.3	60.63 ± 0.97
298.15 K, x1 = 0.7002	1.08 ± 0.11	1072.2 ± 2.4	82.01 ± 1.8
298.15 K, x1 = 0.7999	0.789 ± 0.079	1080.57 ± 2.5	105 ± 3
298.15 K, x1 = 0.8999	0.589 ± 0.059	1088.08 ± 2.7	128.8 ± 4.5
298.15 K, x1 = 1	0.459 ± 0.046	1093.67 ± 2.9	151.9 ± 6.1
303.15 K, x1 = 0.1002	6.16 ± 0.62	871.55 ± 2	2.697 ± 0.038
303.15 K, x1 = 0.2002	5.43 ± 0.54	937.88 ± 2	6.468 ± 0.092
303.15 K, x1 = 0.2998	4.71 ± 0.47	985.24 ± 2.1	12.26 ± 0.18
303.15 K, x1 = 0.4001	3.36 ± 0.34	1019.65 ± 2.1	20.36 ± 0.31
303.15 K, x1 = 0.4997	2.01 ± 0.2	1043.41 ± 2.2	30.78 ± 0.49
303.15 K, x1 = 0.5998	1.67 ± 0.17	1058.77 ± 2.3	44.13 ± 0.73
303.15 K, x1 = 0.7002	1.32 ± 0.13	1069.41 ± 2.4	59.49 ± 0.99
303.15 K, x1 = 0.7999	0.973 ± 0.097	1077.79 ± 2.5	76.35 ± 1.6
303.15 K, x1 = 0.8999	0.72 ± 0.072	1085.29 ± 2.7	93.37 ± 2.4
303.15 K, x1 = 1	0.583 ± 0.058	1090.61 ± 2.9	110.1 ± 3.4
308.15 K, x1 = 0.1002	6.49 ± 0.65	867.37 ± 2	1.998 ± 0.028
308.15 K, x1 = 0.2002	5.83 ± 0.58	934.26 ± 2	4.904 ± 0.07
308.15 K, x1 = 0.2998	5.16 ± 0.52	981.65 ± 2.1	9.381 ± 0.14
308.15 K, x1 = 0.4001	3.77 ± 0.38	1016.47 ± 2.1	15.33 ± 0.23
308.15 K, x1 = 0.4997	2.35 ± 0.23	1040.37 ± 2.2	22.87 ± 0.36
308.15 K, x1 = 0.5998	1.98 ± 0.2	1055.91 ± 2.3	32.68 ± 0.54
308.15 K, x1 = 0.7002	1.59 ± 0.16	1066.65 ± 2.4	43.59 ± 0.75
308.15 K, x1 = 0.7999	1.18 ± 0.12	1075.33 ± 2.5	55.98 ± 0.94
308.15 K, x1 = 0.8999	0.874 ± 0.087	1082.59 ± 2.7	69.61 ± 1.4
308.15 K, x1 = 1	0.733 ± 0.073	1087.57 ± 2.9	83.42 ± 2
313.15 K, x1 = 0.1002	6.81 ± 0.68	862.96 ± 2	1.461 ± 0.02
313.15 K, x1 = 0.2002	6.22 ± 0.62	930.69 ± 2	3.715 ± 0.053
313.15 K, x1 = 0.2998	5.62 ± 0.56	978.11 ± 2.1	7.289 ± 0.11
313.15 K, x1 = 0.4001	4.18 ± 0.42	1013.36 ± 2.1	11.81 ± 0.18
313.15 K, x1 = 0.4997	2.71 ± 0.27	1037.38 ± 2.2	17.46 ± 0.28
313.15 K, x1 = 0.5998	2.31 ± 0.23	1053.06 ± 2.2	24.53 ± 0.41
313.15 K, x1 = 0.7002	1.88 ± 0.19	1063.86 ± 2.4	32.94 ± 0.57
313.15 K, x1 = 0.7999	1.42 ± 0.14	1072.65 ± 2.5	42.28 ± 0.76
313.15 K, x1 = 0.8999	1.06 ± 0.11	1079.86 ± 2.7	53.18 ± 0.92
313.15 K, x1 = 1	0.905 ± 0.091	1084.55 ± 2.9	64.78 ± 1.3
318.15 K, x1 = 0.1002	7.13 ± 0.71	858.59 ± 2	1.077 ± 0.015
318.15 K, x1 = 0.2002	6.61 ± 0.66	927.1 ± 2	2.907 ± 0.041
318.15 K, x1 = 0.2998	6.1 ± 0.61	974.43 ± 2.1	5.635 ± 0.083
318.15 K, x1 = 0.4001	4.61 ± 0.46	1010.2 ± 2.1	9.215 ± 0.14
318.15 K, x1 = 0.4997	3.11 ± 0.31	1034.36 ± 2.2	13.52 ± 0.21
318.15 K, x1 = 0.5998	2.67 ± 0.27	1050.24 ± 2.2	18.99 ± 0.31
318.15 K, x1 = 0.7002	2.22 ± 0.22	1060.96 ± 2.4	25.5 ± 0.4
318.15 K, x1 = 0.7999	1.69 ± 0.17	1069.97 ± 2.5	32.82 ± 0.59
318.15 K, x1 = 0.8999	1.26 ± 0.13	1077.03 ± 2.7	41.2 ± 0.77
318.15 K, x1 = 1	1.1 ± 0.11	1081.54 ± 2.9	50.96 ± 0.92
323.15 K, x1 = 0.1002	7.45 ± 0.75	854.24 ± 2	0.775 ± 0.011
323.15 K, x1 = 0.2002	7.01 ± 0.7	923.56 ± 2	2.285 ± 0.033
323.15 K, x1 = 0.2998	6.58 ± 0.66	970.89 ± 2.1	4.456 ± 0.066
323.15 K, x1 = 0.4001	5.05 ± 0.51	1006.99 ± 2.1	7.216 ± 0.11
323.15 K, x1 = 0.4997	3.52 ± 0.35	1031.23 ± 2.2	10.53 ± 0.17
323.15 K, x1 = 0.5998	3.08 ± 0.31	1047.39 ± 2.2	14.68 ± 0.24
323.15 K, x1 = 0.7002	2.6 ± 0.26	1060 ± 2.4	19.99 ± 0.34
323.15 K, x1 = 0.7999	2 ± 0.2	1070 ± 2.5	25.88 ± 0.46
323.15 K, x1 = 0.8999	1.5 ± 0.15	1074.33 ± 2.7	33.37 ± 0.62
323.15 K, x1 = 1	1.33 ± 0.13	1078.54 ± 2.8	41.55 ± 0.81
